Assay results reported in patent US20240254118A1, “PRMT5 INHIBITORS AND USES THEREOF” (Gilead Sciences, Inc., priority 2022, published 2024).

Columns and labels:
[1] = system: SDMA signal (PRMT5 inhibition) in HCT116 MTAP-deleted cells; assay: Symmetric di-methyl arginine image-based high content screen assay (SDMA assay), HCT116 MTAP-deleted; format: cell-based; details: SDMA assay; for EC50: Homo sapiens, HCT-116, 72 h, 3 days of treatment, cell line not given, taken as HCT116 MTAP-deleted, read-out: EC50 (SDMA assay)
Procedure, shortened: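 HCT116 MTAP-deleted cells treated with compound until Day 3, then formalin-fixed, permeabilized and immunostained for SDMA, with DAPI nuclear counterstain. Imaged by high-content microscopy; SDMA read-out is mean Alexa 488 intensity per DAPI-defined cell, reflecting PRMT5 inhibition.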

[2] = system: HCT116 MTAP-deleted cells; assay: Cell viability assay (CellTiter-Glo, 7 days), HCT116 MTAP-deleted; details: Homo sapiens, HCT-116, 168 h
[3] = taken as HCT116 WT versus MTAP-deleted

SMILES	EC50 [1]	EC50 selectivity (SDMA assay) [1, 3]	CC50 [2]	EC50 selectivity (SDMA assay) ([1]; taken as HCT116 WT vs MTAP-deleted)
CC(=O)N(C)N(Cc1ccc(C2CC2)cc1)C(=O)c1ccc2nc(N)c3cnn(C)c3c2c1 [Example 98, N′-acetyl-4-amino-N-(4-cyclopropylbenzyl)-N′,1-dimethyl-1H-pyrazolo[4,3-c]quinoline-8-carbohydrazide]	< 1 nM	120	< 100 nM	–
CN(C(=O)C1CC1)N(Cc1ncc(Cl)cc1F)C(=O)c1ccc2nc(N)c3cnn(C)c3c2c1 [Example 360, 4-amino-N-((5-chloro-3-fluoropyridin-2-yl)methyl)-N′-(cyclopropanecarbonyl)-N′,1-dimethyl-1H-pyrazolo[4,3-c]quinoline-8-carbohydrazide]	1 to 5 nM	446	< 100 nM	–
CC(=O)N(C)N(Cc1ccc(C(F)(F)F)nc1C)C(=O)c1ccc2nc(N)c3cnn(C)c3c2c1 [Example 416, N′-acetyl-4-amino-N′,1-dimethyl-N-((2-methyl-6-(trifluoromethyl)pyridin-3-yl)methyl)-1H-pyrazolo[4,3-c]quinoline-8-carbohydrazide]	1 to 5 nM	–	< 100 nM	133
CC(=O)N(C(C)C)N(Cc1ccc(C(F)(F)F)cn1)C(=O)c1ccc2nc(N)c3cnn(C)c3c2c1 [Example 203, N′-acetyl-4-amino-N′-isopropyl-1-methyl-N-[[5-(trifluoromethyl)-2-pyridyl]methyl]pyrazolo[4,3-c]quinoline-8-carbohydrazide]	1 to 5 nM	159	100 to 1000 nM	–
CN(C(=O)C1(C#N)CCC1)N(Cc1ccc(C(F)(F)F)cn1)C(=O)c1ccc2nc(N)c3cnn(C)c3c2c1 [Example 192, 4-amino-N′-(1-cyanocyclobutanecarbonyl)-N′,1-dimethyl-N-[[5-(trifluoromethyl)-2-pyridyl]methyl]pyrazolo[4,3-c]quinoline-8-carbohydrazide]	1 to 5 nM	185	100 to 1000 nM	–
CN1CCN(N(Cc2cn3ccc(Cl)cc3n2)C(=O)c2ccc3nc(N)c4cnn(C)c4c3c2)C1=O [Example 125, 4-Amino-N-[(7-chloroimidazo[1,2-a]pyridin-2-yl)methyl]-1-methyl-N-(3-methyl-2-oxo-imidazolidin-1-yl)pyrazolo[4,3-c]quinoline-8-carboxamide]	1 to 5 nM	60	< 100 nM	–
CC(=O)N(C)N(Cc1ccc(-c2ccnn2C(F)(F)F)cc1F)C(=O)c1ccc2nc(N)c3cnn(C)c3c2c1 [Example 244, N′-acetyl-4-amino-N-(2-fluoro-4-(1-(trifluoromethyl)-1H-pyrazol-5-yl)benzyl)-N′,1-dimethyl-1H-pyrazolo[4,3-c]quinoline-8-carbohydrazide]	< 1 nM	109	< 100 nM	–
CC(=O)N(C)N(Cc1ccc(-c2cnn(C(F)F)c2)cc1F)C(=O)c1ccc2nc(N)c3cnn(C)c3c2c1 [Example 242, N′-acetyl-4-amino-N-(4-(1-(difluoromethyl)-1H-pyrazol-4-yl)-2-fluorobenzyl)-N′,1-dimethyl-1H-pyrazolo[4,3-c]quinoline-8-carbohydrazide]	< 1 nM	77	< 100 nM	–
Cn1ncc2c(N)nc3ccc(C(=O)N(Cc4cn5cc(Cl)ccc5n4)N4CCCC4=O)cc3c21 [Example 123, 4-Amino-N-[(6-chloroimidazo[1,2-a]pyridin-2-yl)methyl]-1-methyl-N-(2-oxopyrrolidin-1-yl)pyrazolo[4,3-c]quinoline-8-carboxamide]	< 1 nM	39	< 100 nM	–
Cn1ncc2c(N)nc3cc(F)c(C(=O)N(Cc4ccccc4F)N4CCCC4=O)cc3c21 [Example 55, 4-amino-7-fluoro-N-(2-fluorobenzyl)-1-methyl-N-(2-oxopyrrolidin-1-yl)-1H-pyrazolo[4,3-c]quinoline-8-carboxamide]	< 1 nM	168	< 100 nM	–
CCOC(=O)N(C)N(Cc1ccc(C(F)(F)F)cn1)C(=O)c1ccc2nc(N)c3cnn(C)c3c2c1 [Example 38, ethyl N-[(4-amino-1-methyl-pyrazolo[4,3-c]quinoline-8-carbonyl)-[[5-(trifluoromethyl)-2-pyridyl]methyl]amino]-N-methyl-carbamate]	< 1 nM	12	< 100 nM	–
CC(=O)N(C)N(Cc1ccc(-c2cnn(C3CC3)c2)cc1F)C(=O)c1ccc2nc(N)c3cnn(C)c3c2c1 [Example 236, N′-acetyl-4-amino-N-(4-(1-cyclopropyl-1H-pyrazol-4-yl)-2-fluorobenzyl)-N′,1-dimethyl-1H-pyrazolo[4,3-c]quinoline-8-carbohydrazide]	< 1 nM	203	< 100 nM	–
CC(=O)N(C)N(Cc1nc2cc(F)ccc2s1)C(=O)c1ccc2nc(N)c3cnn(C)c3c2c1 [Example 92, N′-Acetyl-4-amino-N-[(5-fluoro-1,3-benzothiazol-2-yl)methyl]-N′,1-dimethyl-pyrazolo[4,3-c]quinoline-8-carbohydrazide]	< 1 nM	257	< 100 nM	–
CN(C(=O)C12CC(C1)C2)N(Cc1ccc(C(F)(F)F)nn1)C(=O)c1ccc2nc(N)c3cnn(C)c3c2c1 [Example 248, 4-amino-N′-(bicyclo[1.1.1]pentane-1-carbonyl)-N′,1-dimethyl-N-((6-(trifluoromethyl)pyridazin-3-yl)methyl)-1H-pyrazolo[4,3-c]quinoline-8-carbohydrazide]	1 to 5 nM	536	100 to 1000 nM	–
Cn1ncc2c(N)nc3ccc(C(=O)N(Cc4nc5ccccc5s4)N4CCCC4=O)cc3c21 [Example 65, 4-amino-N-(1,3-benzothiazol-2-ylmethyl)-1-methyl-N-(2-oxopyrrolidin-1-yl)pyrazolo[4,3-c]quinoline-8-carboxamide]	< 1 nM	149	< 100 nM	–
CCOC(=O)NN(C(=O)c1ccc2nc(N)c3cnn(C)c3c2c1)C1COc2cc(C(F)(F)F)ccc21 (stereo not drawn) [Example 350, ethyl 2-(4-amino-1-methyl-1H-pyrazolo[4,3-c]quinoline-8-carbonyl)-2-(6-(trifluoromethyl)-2,3-dihydrobenzofuran-3-yl)hydrazine-1-carboxylate]	< 1 nM	42	< 100 nM	–
Cn1ncc2c(N)nc3ccc(C(=O)N(Cc4ccc(C(F)(F)F)cc4F)N4CCCCC4=O)cc3c21 [Example 2, 4-amino-N-(2-fluoro-4-(trifluoromethyl)benzyl)-1-methyl-N-(2-oxopiperidin-1-yl)-1H-pyrazolo[4,3-c]quinoline-8-carboxamide]	< 1 nM	25	< 100 nM	–
Cn1ncc2c(N)nc3cc(F)c(C(=O)N(Cc4ccc(C(F)(F)F)nc4)N4CCCC4=O)cc3c21 [Example 57, 4-amino-7-fluoro-1-methyl-N-(2-oxopyrrolidin-1-yl)-N-((6-(trifluoromethyl)pyridin-3-yl)methyl)-1H-pyrazolo[4,3-c]quinoline-8-carboxamide]	1 to 5 nM	108	< 100 nM	–
Cn1ncc2c(N)nc3ccc(C(=O)N(Cc4ccc(C(F)(F)F)cn4)N4CCOCC4(C)C)cc3c21 [Example 292, 4-amino-N-(3,3-dimethylmorpholino)-1-methyl-N-((5-(trifluoromethyl)pyridin-2-yl)methyl)-1H-pyrazolo[4,3-c]quinoline-8-carboxamide]	1 to 5 nM	80	100 to 1000 nM	–
CC(=O)N(C)N(Cc1ccc(-c2ccn(C(F)(F)F)n2)cc1F)C(=O)c1ccc2nc(N)c3cnn(C)c3c2c1 [Example 249, N′-acetyl-4-amino-N-(2-fluoro-4-(1-(trifluoromethyl)-1H-pyrazol-3-yl)benzyl)-N′,1-dimethyl-1H-pyrazolo[4,3-c]quinoline-8-carbohydrazide]	< 1 nM	193	< 100 nM	–
CCC(=O)N(C)N(Cc1ccc(C(F)(F)F)cn1)C(=O)c1cc2c(cc1F)nc(N)c1cnn(C)c12 [Example 42, 4-amino-7-fluoro-N′, 1-dimethyl-N′-propanoyl-N-[[5-(trifluoromethyl)-2-pyridyl]methyl]pyrazolo[4,3-c]quinoline-8-carbohydrazide]	< 1 nM	14	< 100 nM	–
Cn1ncc2c(N)nc3cc(F)c(C(=O)N(Cc4ccc(C(F)(F)F)cn4)N4C[C@H]5C[C@@H]4CO5)cc3c21 [Example 300, 4-amino-N-((1R,4R)-2-oxa-5-azabicyclo[2.2.1]heptan-5-yl)-7-fluoro-1-methyl-N-((5-(trifluoromethyl)pyridin-2-yl)methyl)-1H-pyrazolo[4,3-c]quinoline-8-carboxamide]	< 1 nM	24	< 100 nM	–
[2H]C([2H])(c1ccc(C(F)(F)F)cn1)N(C(=O)c1ccc2nc(N)c3cnn(C)c3c2c1)N(C)C(=O)C1CC1 [Example 256, 4-amino-N′-(cyclopropanecarbonyl)-N′,1-dimethyl-N-((5-(trifluoromethyl)pyridin-2-yl)methyl-d2)-1H-pyrazolo[4,3-c]quinoline-8-carbohydrazide]	< 1 nM	130	< 100 nM	–
